Source: US8722849B2, “Polypeptides” (Novo Nordisk A/S, priority 2011, dated 2014)
Read-outs that look alike come from different tables or passages of the source. Starred links: 1 amine or outer side, 2 acyl side, 3 side chain; linkers in the order of their positions; H or OH if unused. Positions of bridges follow the written chain, without caps; N, C: chain ends. Residues, ends and D or L forms follow the SMILES beside them. *: point of attachment. C20 diacid = O=C(O)CCCCCCCCCCCCCCCCCCC(=O)*; γGlu = O=C(O)[C@H](CCC(=O)[*:2])N[*:1]

Key:
[1] = Assay (IV) determination of solubility; format: physicochemical
Method in brief: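 Stock ~500 nmol/ml in water; 1:1 with 100 mM buffer, pH 3.0–8.0 (glycylglycine ≤5.0, bistrispropane ≥6.0); 18 h RT; spin; HPLC quantitation of soluble polypeptide.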

[2] = molecular target: T1, human amylin receptor (amylin 3(a) receptor: human calcitonin receptor + RAMP-3) (Homo sapiens, UniProt O60896+P30988); assay: Assay (II)a functional CRE-luciferase assay, human amylin receptor; format: cell-based; settings: Table 2; BHK amylin 3(a)-receptor/CRE-luc cells
T1 construct: expressed in transfected cells; host or cells: BHK570
T1 sequence (P30988 25-474): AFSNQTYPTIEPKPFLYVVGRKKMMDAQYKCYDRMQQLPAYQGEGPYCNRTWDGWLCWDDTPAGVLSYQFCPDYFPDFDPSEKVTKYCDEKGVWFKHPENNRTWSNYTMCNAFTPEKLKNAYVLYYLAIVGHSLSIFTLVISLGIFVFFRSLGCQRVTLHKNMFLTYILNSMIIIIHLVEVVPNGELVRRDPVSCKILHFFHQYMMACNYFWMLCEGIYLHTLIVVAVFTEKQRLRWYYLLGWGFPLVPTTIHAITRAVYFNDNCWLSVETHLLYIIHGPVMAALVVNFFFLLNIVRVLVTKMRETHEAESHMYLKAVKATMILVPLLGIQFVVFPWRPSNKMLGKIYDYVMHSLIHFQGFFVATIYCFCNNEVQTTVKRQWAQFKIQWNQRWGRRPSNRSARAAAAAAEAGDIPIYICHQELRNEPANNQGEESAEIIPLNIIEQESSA
T1 sequence (O60896 24-148 partner): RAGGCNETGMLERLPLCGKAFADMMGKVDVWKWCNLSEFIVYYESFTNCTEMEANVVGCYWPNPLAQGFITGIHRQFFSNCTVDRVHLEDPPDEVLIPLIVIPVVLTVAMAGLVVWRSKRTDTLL

[3] = molecular target: T2, human calcitonin receptor (Homo sapiens, UniProt P30988); assay: Assay (II)a functional CRE-luciferase assay, human calcitonin receptor; format: cell-based; settings: Table 7; human calcitonin (CTa) receptor
T2 construct: expressed in transfected cells; host or cells: BHK570
T2 sequence (P30988 25-474): T1 sequence (P30988 25-474)

solubility at 18 h ([1]; bistrispropane buffer, pH 6, pH 6.0, read-out: Solubility pH 6.0): > 200 µM
solubility at 18 h ([1]; bistrispropane buffer, pH 6.5, pH 6.5, read-out: Solubility pH 6.5): > 200 µM
solubility at 18 h ([1]; bistrispropane buffer, pH 7, pH 7.0, 18 hours at room temperature, Table 3, read-out: Solubility pH 7.0): > 200 µM
solubility at 18 h ([1]; bistrispropane buffer, pH 7, pH 7.0, Table 8, read-out: Solubility pH 7.0): > 200 µM
solubility at 18 h ([1]; bistrispropane buffer, pH 7, pH 7.0, Table 9, read-out: Solubility pH 7.0): > 200 µM
solubility at 18 h ([1]; bistrispropane buffer, pH 7, pH 7.0, read-out: Solubility pH 7.0): > 200 µM
solubility at 18 h ([1]; bistrispropane buffer, pH 7.5, pH 7.5, Table 9, read-out: Solubility pH 7.5): > 200 µM
solubility at 18 h ([1]; bistrispropane buffer, pH 7.5, pH 7.5, read-out: Solubility pH 7.5): > 200 µM
solubility at 18 h ([1]; bistrispropane buffer, pH 8, pH 8.0, read-out: Solubility pH 8.0): > 200 µM
solubility at 18 h ([1]; glycylglycine buffer, pH 3, pH 3.0, read-out: Solubility pH 3.0): > 200 µM
solubility at 18 h ([1]; glycylglycine buffer, pH 4, pH 4.0, 18 hours at room temperature, Table 2, read-out: Solubility pH 4.0): > 200 µM
solubility at 18 h ([1]; glycylglycine buffer, pH 4, pH 4.0, read-out: Solubility pH 4.0): > 200 µM
solubility at 18 h ([1]; glycylglycine buffer, pH 5, pH 5.0, read-out: Solubility pH 5.0): > 200 µM
EC50 [2]: 0.156 nM
EC50 [3]: 0.169 nM
Structure (SMILES): CC[C@H](C)[C@H](NC(=O)[C@@H]1CCCN1C(=O)CNC(=O)[C@H](Cc1ccccc1)NC(=O)[C@H](CC(N)=O)NC(=O)[C@H](CCC(N)=O)NC(=O)[C@H](CO)NC(=O)[C@H](CO)NC(=O)[C@H](Cc1c[nH]cn1)NC(=O)[C@H](Cc1c[nH]cn1)NC(=O)[C@H](CC(C)C)NC(=O)[C@H](Cc1ccccc1)NC(=O)[C@H](CCC(=O)O)NC(=O)[C@H](C)NC(=O)[C@H](CC(C)C)NC(=O)[C@H](CCCNC(=N)N)NC(=O)[C@H](CCC(N)=O)NC(=O)[C@@H](NC(=O)[C@H](C)NC(=O)[C@@H]1CSSC[C@H](NC(=O)[C@H](CCCCN)NC(=O)CC[C@H](NC(=O)CCCCCCCCCCCCCCCCCCC(=O)O)C(=O)O)C(=O)N[C@@H](CC(N)=O)C(=O)N[C@@H]([C@@H](C)O)C(=O)N[C@@H](C)C(=O)N[C@@H]([C@@H](C)O)C(=O)N1)[C@@H](C)O)C(=O)N[C@@H](CC(C)C)C(=O)N1CCC[C@H]1C(=O)N1CCC[C@H]1C(=O)N[C@H](C(=O)N[C@@H](CC(N)=O)C(=O)N[C@H](C(=O)NCC(=O)N[C@@H](CO)C(=O)N[C@@H](Cc1c[nH]cn1)C(=O)N[C@H](C(=O)N[C@@H](Cc1ccc(O)cc1)C(N)=O)[C@@H](C)O)C(C)C)[C@@H](C)O [Example 117, N-alpha-[(S)-4-Carboxy-4-(19-carboxynonadecanoylamino)butyryl]-[Glu14,His17,Gln21,His35)-pramlintide] ({C20 diacid-γGlu}-KCNTATCATQRLAEFLHHSSQNFGPILPPTNVGSHTY-NH2; disulfide 2-7 (inferred); C-terminus assumed)
